The values below come from publication PMC10488193, “Evaluation of the Chemical Stability, Membrane Permeability and Antiproliferative Activity of Cyclic Diarylheptanoids from European Hornbeam (Carpinus betulus L.)” (International Journal of Molecular Sciences, 2023).

Each structure is given as a SMILES string. Read-outs that look alike come from different tables or passages of the source.

The test system of data set [1] is A2058 (melanoma, derived from metastatic site: lymph node). Put plainly: In vitro antiproliferative activity, Alamar Blue assay. The note with it: Homo sapiens. In kind it is cell-based. On the procedure: (§1) For the experiments, the following human cell lines were used: A2058 (melanoma, derived from metastatic site: lymph node), HepG2 (hepatocellular carcinoma), U87 (glioblastoma), HT-29 (colorectal carcinoma) and HL-60 (acute promyelocytic leukaemia). Cell lines were generous gifts from Dr. […] (Department of Experimental Pharmacology, National Institute of Oncology, Budapest, Hungary). […] The cultures were maintained at 37 °C in a humidified atmosphere with 5% CO2. The cells were grown to confluency and then divided into 96-well tissue culture plates (Sarstedt, Nümbrecht, Germany) with an initial cell number of 5000 cells/well. Cells were incubated at 37 °C in a 5% CO2 humidified atmosphere overnight. Before the assay, 50 μL of the supernatant was removed and replaced with a 50 μL serum-free medium (SFM). […] The cells were treated for 24 h with the compounds and negative control cells (no compound control) were treated with SFM only (incubated at 37 °C). […] The percentage of cytostasis was calculated with the following equation: […] Data were evaluated with Excel (version: 365; Microsoft, Redmond, WA, USA) and the curves were defined using Microcal OriginPro (version: 2018; OriginLab, Northampton, MA, USA) software. In each case, two independent experiments were carried out with four parallel measurements and the mean IC50 values together with ±SD were represented. The Excel (version: 365) (Microsoft, Redmond, WA, USA) and Microcal OriginPro (version: 2018) (OriginLab, Northampton, MA, USA) softwares were used for data evaluation.

The subject of data set [2] is HL-60 (acute promyelocytic leukaemia). The description is as above. Type of data set: cell-based. The settings on record: Homo sapiens. The protocol:
as §1

For the next data set, the system named is U87 (glioblastoma). Described as above. In kind it is cell-based. The note with it: Homo sapiens, read-out: IC50 ± SD. The protocol:
as §1

The test system of data set [3] is HepG2 (hepatocellular carcinoma). The description is as above. In kind it is cell-based. The settings on record: Homo sapiens. On the procedure:
as §1

In data set [4] the test system is HT-29 (colorectal carcinoma). Described as above. The note with it: Homo sapiens. In kind it is cell-based. The protocol: as §1
For data set [5] the following is noted: cited from earlier work.
Details of data set [6]: method as in PMID 28074653. The settings on record: ambient temperature, solvolysis and oxidative degradation; cited from earlier work.
Where [7] appears, read: A2058, 24 h treatment, then three days culture, n = 2, read-out: IC50 ± SD.
Where [8] appears, read: U87, 24 h treatment, then three days culture, n = 2.
Where [9] appears, read: HepG2, 24 h treatment, then three days culture, n = 2, read-out: IC50 ± SD.

`O=C(Nc1ccc(C(F)(F)F)cc1)c1cc(Cl)ccc1O` [Sal, 5-chloro-2-hydroxy-N-[4-(trifluoromethyl)phenyl]benzamide, reference compound]: the IC50 in data set [1] (setting [7]) turned out to be 6.8 ± 1.2 µM; in data set [2] (HL-60, 24 h treatment, then three days culture, n = 2, read-out: IC50 ± SD), 4.5 ± 0.7 µM; with U87 (glioblastoma) (setting [8]), 0.8 ± 0.3 µM; in data set [3] (setting [9]), 5.8 ± 0.7 µM.
For the compound `COc1cc([C@@H]2c3cc4c(cc3[C@@H](O[C@@H]3O[C@@H]5CO[C@@H](C)O[C@H]5[C@H](O)[C@H]3O)[C@H]3COC(=O)[C@H]23)OCO4)cc(OC)c1O` [Etoposide, etoposide, reference compound], the IC50 in data set [1] (setting [7]) is 8.9 ± 0.2 µM; in data set [4] (HT-29, 24 h treatment, then three days culture, n = 2, read-out: IC50 ± SD), 18.5 ± 1.7 µM; with U87 (glioblastoma) (setting [8]), 27 ± 2.3 µM; in data set [3] (setting [9]) it was 20.9 ± 1.2 µM.
As for `COc1cccc2c1C(=O)c1c(O)c3c(c(O)c1C2=O)C[C@@](O)(C(C)=O)C[C@@H]3O[C@H]1C[C@H](N)[C@H](O)[C@H](C)O1` [Dau, daunomycin, reference compound], the IC50 in data set [1] (A2058, read-out: IC50 ± SD) was 0.16 µM; in data set [4] (HT-29, read-out: IC50 ± SD), 0.2 ± 0.01 µM; in data set [2] (HL-60, read-out: IC50 ± SD), 0.02 ± 0.01 µM; in the data set on U87 (glioblastoma) it was 0.4 ± 0.05 µM; in data set [3] (HepG2, read-out: IC50 ± SD), 1.2 ± 0.2 µM.
Consider `O=C(/C=C/CCc1ccc(O)c(O)c1)CCc1ccc(O)c(O)c1` [Hirsutenone, hirsutenone], for which the half-life in data set [5] (aqueous solution, 25 °C) is 139 h; in data set [5] (aqueous solution, 50 °C), 38.2 h; in data set [5] (room temperature) it was “less than seven days”.
On to `COc1cc(/C=C/C(=O)CC(=O)/C=C/c2ccc(O)c(OC)c2)ccc1O` [Curcumin, curcumin], for which the half-life entry in data set [6] is “less than an hour”.
